Measured values published in publication PMC10591057 (Cell Reports Medicine, 2023).

System: CNV lesions
Assay: NHP laser-induced CNV, fluorescein angiography lesion grading
Type: in vivo, Chlorocebus sabaeus
Settings: single ITV 1 mg Aflibercept

aflibercept: current standard of care anti-VEGF, single ITV administration of 1 mg
incidence of grade IV lesions, Myr-EBIN vs aflibercept groups: no significant difference
